Reference: BindingDB's records for doi:10.1016/s0960-894x(02)00995-2 (The Oxford Centre For Molecular Sciences and The Dyson …, 2003)

Biological target: T1, Chymotrypsin-like elastase family member 2A (Sus scrofa, UniProt P08419)
T1 sequence (P08419 whole entry): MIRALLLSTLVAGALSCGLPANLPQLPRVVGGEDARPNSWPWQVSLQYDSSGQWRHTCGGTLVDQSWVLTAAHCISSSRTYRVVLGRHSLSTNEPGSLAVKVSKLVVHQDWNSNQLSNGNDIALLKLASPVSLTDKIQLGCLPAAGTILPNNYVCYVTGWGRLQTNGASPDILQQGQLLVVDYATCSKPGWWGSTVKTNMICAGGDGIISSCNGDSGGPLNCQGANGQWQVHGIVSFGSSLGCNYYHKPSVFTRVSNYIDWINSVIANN
Assay: ChEBML_152310
Excerpt: Inhibitory concentration against porcine pancreatic elastase (PPE)

IC50 [µM] | Structure (SMILES)
293 | CCC(C)[C@H]1C(=O)N(S(=O)(=O)c2ccc(C)cc2)CCN1C(=O)OC(C)(C)C (stereo partly drawn) [(S)-2-sec-Butyl-3-oxo-4-(toluene-4-sulfonyl)-piperazine-1-carboxylic acid tert-butyl ester]
2000 | CC(C)C[C@H]1C(=O)N(Cc2ccccc2)CCN1S(C)(=O)=O [(S)-1-Benzyl-3-isobutyl-4-methanesulfonyl-piperazin-2-one]
62 | Cc1ccc(S(=O)(=O)N2CCN(Cc3ccccc3)C(=O)[C@@H]2CC(C)C)cc1 [(S)-1-Benzyl-3-isobutyl-4-(toluene-4-sulfonyl)-piperazin-2-one]
923 | CC(C)C[C@H]1C(=O)N(S(C)(=O)=O)CCN1C(=O)OC(C)(C)C [(S)-2-Isobutyl-4-methanesulfonyl-3-oxo-piperazine-1-carboxylic acid tert-butyl ester]
